Experimental data reported in US7071206B2, “Agents for treating neurodegenerative disorders” (Medivation, Inc., priority 1995, dated 2006).

System: patients suffering from Alzheimer's disease
Experiment: Clinical trial of dimebon tablets, inventors' scale (E. E. Bukatina et al.; 0 = absence of a symptom, 4 = greatest manifestation)
Type: in vivo, human
Settings: for mean value of delirium manifestations: 10 patients with delirious symptoms prior to treatment; for mean value of depressive manifestations: 12 patients with depressive manifestations
Procedure: The test was carried out under the direct supervision by two of the inventors, namely E. E. Bukatina and V. Grigorieva, in 14 patients who agreed to take part in the tests, 13 of whom lived in a boarding house for senile persons and one patient lived with their family.
Alzheimer's disease was diagnosed on the basis of criteria ICD-10 NINCDS ADRDA.
Dimebon in the form of tablets (comprising 10 mg of dimebon, 30 mg of lactose, 5 mg of magnesium stearate was prescribed for oral administration in a dose of 0.02 g three to times a day. The patients living in the boarding house received dimebon for 58 days. A patient (observation 14) who was under outpatient observation continued taking the agent for a month after the completion of the tests.
Before the treatment with dimebon, and at 4 and 8 weeks after treatment the patients were examined according to Hazegawa's scale and the inventors' scale (“Social and Clinical Psychiatry”, 1992, No.4, pp.29–37) which includes the following indexes: (1) orientation in locality, time, immediate surroundings and one's own personality; (2) orientation in space; (3) memory for the past; (4) memory for the present; (5) “life in the past”; (6) (a) articulation, (b) difficulty in finding words, and distortion of words; (c) naming of objects; (d) following instructions; (7) concentration (of attention); (8) an affective sphere; (a) high spirits, (b) low spirits; (9) delirium; (10) hearing hallucinations; (11) visual hallucinations; (12) senile or senile-like confusion (when motion anxiety is accompanied by the revival of the past experience); (13) irritability; (14) anxiety; (15) asthenia; (16) headaches; (17) dizziness; (18) tearfulness; (19) spontaneous activity; (20) elementary self-service; and (21 control of sphincters.
According to the Hazegawa's scale, the 0 score indicates the poorest result; on the contrary, according to the inventors' scale, the 0 score indicates the absence of a symptom 4 score indicates the greatest manifestation thereof. […] Before the therapy was started, the patients had been independently examined by two doctors who used the inventors' scale. The examination during the treatment was carried out by the doctors using both the scales. The evaluation according to all the inventors' scale points during all the tests and their variations during the treatment with dimebon are given in the Appendix.
According to the inventors' scale, the degree of the disturbance if the cognitive functions was determined by a sum of evaluations according to the first 5 scale points reflecting the condition of memory, orientation and relation with the reality. The disturbance of speech was dealt with separately and was determined by a sum of evaluations according to items 6b-6d.
Both absolute evaluations of the signs under investigation (the evaluation prior to treatment is a mean evaluation of the two examinations) and variations in them were analysed in the course of therapy. In doing so, only those changes that were beyond the range of evaluations obtained in two pre-treatment examinations were taken into consideration.
The test results reflected the condition of the patients at the time of the examination. Any changes in the metal state observed in the interval between the tests and disappearing by the moment of examination according to the scale were described in the section “Clinical Observations”.
The statistical data processing was carried out by means of Student's t-test and Fisher's “Fi” criterion.

[1] = after 4 weeks vs two examinations prior to treatment, + improvement, − deterioration
[2] = after 4 weeks, mean of 14 patients

Cc1ccc2c(c1)c1c(n2CCc2ccc(C)nc2)CCN(C)C1 [No. 10, 2,8-dimethyl-5-[2-(6-methyl-3-pyridyl)ethyl]-2,3,4,5-tetrahydro-1H-pyrido[4,3-b]indole]
Cognitive functions (first 5 scale points): no variations, % (4 weeks): 81.4%
Cognitive functions (first 5 scale points): no variations, abs. (4 weeks): 57
Cognitive functions: X (no variations in the function prior to and during the treatment), % (4 weeks): 7.1%
Cognitive functions: X (no variations in the function prior to and during the treatment), abs. (4 weeks): 5
Speech functions (items 6b, c, d): no variations, % (4 weeks): 54.8%
Speech functions (items 6b, c, d): no variations, abs. (4 weeks): 23
Speech functions: X (no variations in the function prior to and during the treatment), % (4 weeks): 33.3%
Speech functions: X (no variations in the function prior to and during the treatment), abs. (4 weeks): 14
Cognitive functions (first 5 scale points): no variations, % (8 weeks): 53.6%
Cognitive functions (first 5 scale points): no variations, abs. (8 weeks): 41
Cognitive functions: X (no variations in the function prior to and during the treatment), % (8 weeks): 7.1%
Cognitive functions: X (no variations in the function prior to and during the treatment), abs. (8 weeks): 5
Speech functions (items 6b, c, d): no variations, % (8 weeks): 45.2%
Speech functions (items 6b, c, d): no variations, abs. (8 weeks): 19
Speech functions: X (no variations in the function prior to and during the treatment), % (8 weeks): 30.95%
Speech functions: X (no variations in the function prior to and during the treatment), abs. (8 weeks): 13
mean value of delirium manifestations (4 weeks): 0.8±0.33
mean value of delirium manifestations (8 weeks): 0.7±0.27
mean value of depressive manifestations (after 4 weeks): 0.58±0.18 score
mean value of depressive manifestations (after 8 weeks): 0.58±0.14 score
cognitive functions (Hazegawa's scale and inventor's scale), conclusion (14 patients, especially patients with mild dementia): significant improvement in cognitive functions
mean score of tearfulness (after 4 weeks): 0.2±0.18
Item 1 (orientation in locality, time, immediate surroundings and one's own personality): change during the course of the therapy [1]: +0.11 +/− 0.07 scores
Item 2 (orientation in space): change during the course of the therapy [1]: +0.11 +/− 0.07 scores
Item 3 (memory for the past): change during the course of the therapy [1]: +0.07 +/− 0.07 scores
Item 4 (memory for the present): change during the course of the therapy [1]: 0 +/− 0 scores
Item 5 (life in the past): change during the course of the therapy [1]: +0.14 +/− 0.08 scores
Item 6a (speech): change during the course of the therapy [1]: +0.11 +/− 0.07 scores
Item 6b (difficulty in finding words, and distortion of words): change during the course of the therapy [1]: 0 +/− 0 scores
Item 6g (speech): change during the course of the therapy [1]: −0.07 +/− 0.12 scores
Item 7 (concentration of attention): change during the course of the therapy [1]: 0 +/− 0.5 scores
Item 8b (low spirits): change during the course of the therapy [1]: +0.41 +/− 0.17 scores
Item 9 (delirium): change during the course of the therapy [1]: +0.07 +/− 0.09 scores
Item 13 (irritability): change during the course of the therapy [1]: +0.29 +/− 0.13 scores
Item 14 (anxiety): change during the course of the therapy [1]: −0.04 +/− 0.13 scores
Item 15 (asthenia): change during the course of the therapy [1]: −0.11 +/− 0.09 scores
Item 16 (headaches): change during the course of the therapy [1]: +0.54 +/− 0.21 scores
Item 17 (dizziness): change during the course of the therapy [1]: −0.14 +/− 0.17 scores
Item 18 (tearfulness): change during the course of the therapy [1]: −0.14 +/− 0.14 scores
Item 19 (spontaneous activity): change during the course of the therapy [1]: 0 +/− 0 scores
Item 20 (elementary self-service): change during the course of the therapy [1]: +0.07 +/− 0.07 scores
Item 1 (orientation in locality, time, immediate surroundings and one's own personality): mean value [2]: 1.75 +/− 0.23 scores
Item 2 (orientation in space): mean value [2]: 0.32 +/− 0.15 scores
Item 3 (memory for the past): mean value [2]: 2.29 +/− 0.21 scores
Item 4 (memory for the present): mean value [2]: 2.21 +/− 0.22 scores
Item 5 (life in the past): mean value [2]: 1.75 +/− 0.27 scores
Item 6a (speech): mean value [2]: 0.71 +/− 0.21 scores
Item 6b (difficulty in finding words, and distortion of words): mean value [2]: 0.43 +/− 0.17 scores
Item 6g (speech): mean value [2]: 0.46 +/− 0.16 scores
Item 7 (concentration of attention): mean value [2]: 1.75 +/− 0.26 scores
Item 8b (low spirits): mean value [2]: 0.5 +/− 0.16 scores
Item 9 (delirium): mean value [2]: 0.57 +/− 0.29 scores
Item 13 (irritability): mean value [2]: 0.21 +/− 0.15 scores
Item 14 (anxiety): mean value [2]: 0.29 +/− 0.12 scores
Item 15 (asthenia): mean value [2]: 0.18 +/− 0.1 scores
Item 16 (headaches): mean value [2]: 0.32 +/− 0.21 scores
Item 17 (dizziness): mean value [2]: 0.71 +/− 0.27 scores
Item 18 (tearfulness): mean value [2]: 0.07 +/− 0.07 scores
Item 19 (spontaneous activity): mean value [2]: 1.29 +/− 0.22 scores
